Laboratory results as given in ChEMBL document CHEMBL2396607 (Bioorg Med Chem Lett, 2013).

What was measured:
[1] = Half life in Sprague-Dawley rat at 1 mg/kg, iv; assay type: ADME, organism-based; parameters: dose 1 mg/kg, route intravenous; details: in vivo
Cytochrome P450 3A4 = Cytochrome P450 3A4 (Homo sapiens, UniProt P08684); test: Inhibition of CYP3A4 (unknown origin); assay type: ADME
[2] = Clearance in rat liver microsomes in presence of cofactor for glucuronyl transferases; assay type: ADME, Microsome; details: read-out: CLH
[3] = target: T1, Phosphatidylinositol 4,5-bisphosphate 3-kinase catalytic subunit beta isoform (Homo sapiens, UniProt P42338); test: Inhibition of N-terminal myristoylated P110beta (unknown origin)-mediated AKT phosphorylation at Ser473 expressed in rat Rat1 cells by ELISA; assay type: cell-based
T1 sequence (P42338 whole entry, canonical isoform): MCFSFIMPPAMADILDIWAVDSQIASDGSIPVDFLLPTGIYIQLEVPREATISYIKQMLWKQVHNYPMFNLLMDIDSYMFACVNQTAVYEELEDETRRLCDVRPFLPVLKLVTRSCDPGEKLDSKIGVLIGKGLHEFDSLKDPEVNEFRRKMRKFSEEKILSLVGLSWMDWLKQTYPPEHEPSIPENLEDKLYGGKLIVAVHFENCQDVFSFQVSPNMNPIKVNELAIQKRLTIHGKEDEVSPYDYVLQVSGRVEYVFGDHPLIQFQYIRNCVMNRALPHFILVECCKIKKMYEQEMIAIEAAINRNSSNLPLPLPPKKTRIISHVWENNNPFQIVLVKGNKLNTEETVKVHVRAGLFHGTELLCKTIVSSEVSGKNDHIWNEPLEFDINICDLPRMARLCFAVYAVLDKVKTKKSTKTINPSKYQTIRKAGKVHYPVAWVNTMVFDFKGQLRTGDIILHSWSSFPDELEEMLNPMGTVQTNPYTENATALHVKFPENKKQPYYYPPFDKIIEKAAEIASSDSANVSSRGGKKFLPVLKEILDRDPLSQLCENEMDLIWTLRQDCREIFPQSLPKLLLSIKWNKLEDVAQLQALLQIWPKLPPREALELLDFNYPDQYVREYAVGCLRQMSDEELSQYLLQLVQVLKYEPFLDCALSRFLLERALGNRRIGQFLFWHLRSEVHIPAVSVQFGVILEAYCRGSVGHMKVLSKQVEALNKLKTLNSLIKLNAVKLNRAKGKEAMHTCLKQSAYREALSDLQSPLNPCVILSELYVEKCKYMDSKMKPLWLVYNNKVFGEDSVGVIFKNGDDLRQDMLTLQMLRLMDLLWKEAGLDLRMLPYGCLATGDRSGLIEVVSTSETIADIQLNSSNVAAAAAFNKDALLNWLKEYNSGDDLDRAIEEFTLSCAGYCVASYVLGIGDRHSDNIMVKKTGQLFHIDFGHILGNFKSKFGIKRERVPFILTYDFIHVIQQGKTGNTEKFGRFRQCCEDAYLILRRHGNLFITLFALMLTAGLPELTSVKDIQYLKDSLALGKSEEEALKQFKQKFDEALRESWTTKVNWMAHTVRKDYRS

[4] = target: Phosphatidylinositol 4,5-bisphosphate 3-kinase catalytic subunit gamma isoform (Homo sapiens, UniProt P48736); test: Inhibition of P110gamma (unknown origin) using PIP2:PS as substrate by TR-FRET assay
Chain of Phosphatidylinositol 4,5-bisphosphate 3-kinase catalytic subunit gamma isoform (P48736 whole entry, canonical isoform): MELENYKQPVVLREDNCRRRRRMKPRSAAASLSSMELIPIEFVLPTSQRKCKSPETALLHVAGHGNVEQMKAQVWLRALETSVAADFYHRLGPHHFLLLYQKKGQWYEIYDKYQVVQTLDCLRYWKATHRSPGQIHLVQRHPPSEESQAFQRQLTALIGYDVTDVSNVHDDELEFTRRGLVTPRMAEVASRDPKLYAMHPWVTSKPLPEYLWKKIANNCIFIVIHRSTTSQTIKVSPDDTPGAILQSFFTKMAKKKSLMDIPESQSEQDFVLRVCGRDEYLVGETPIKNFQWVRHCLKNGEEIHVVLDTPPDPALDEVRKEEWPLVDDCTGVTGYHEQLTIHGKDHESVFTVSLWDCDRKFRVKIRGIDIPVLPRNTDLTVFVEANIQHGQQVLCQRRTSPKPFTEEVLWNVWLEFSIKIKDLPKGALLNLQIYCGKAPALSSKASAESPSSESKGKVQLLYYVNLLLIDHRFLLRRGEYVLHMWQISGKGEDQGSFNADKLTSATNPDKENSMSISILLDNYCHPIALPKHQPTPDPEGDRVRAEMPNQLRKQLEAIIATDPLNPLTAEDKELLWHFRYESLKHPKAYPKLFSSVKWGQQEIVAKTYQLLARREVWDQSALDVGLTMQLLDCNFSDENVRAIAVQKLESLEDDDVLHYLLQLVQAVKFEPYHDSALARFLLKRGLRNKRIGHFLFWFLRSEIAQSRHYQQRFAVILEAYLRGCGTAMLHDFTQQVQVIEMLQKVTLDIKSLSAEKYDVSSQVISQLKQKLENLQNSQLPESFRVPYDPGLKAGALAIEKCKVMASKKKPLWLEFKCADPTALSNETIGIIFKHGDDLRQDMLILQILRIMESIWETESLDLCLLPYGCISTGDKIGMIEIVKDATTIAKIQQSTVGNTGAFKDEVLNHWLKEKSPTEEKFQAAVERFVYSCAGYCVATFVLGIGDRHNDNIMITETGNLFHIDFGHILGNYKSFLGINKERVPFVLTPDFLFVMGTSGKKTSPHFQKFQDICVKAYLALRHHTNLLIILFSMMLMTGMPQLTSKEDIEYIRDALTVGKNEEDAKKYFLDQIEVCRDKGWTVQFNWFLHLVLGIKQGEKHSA

[5] = Volume of distribution at steady state in Sprague-Dawley rat at 1 mg/kg, iv; assay type: ADME, organism-based; parameters: dose 1 mg/kg, route intravenous; details: in vivo, read-out: Vdss
[6] = target: T2, Phosphatidylinositol 4,5-bisphosphate 3-kinase catalytic subunit delta isoform (Homo sapiens, UniProt O00329); test: Inhibition of N-terminal myristoylated P110delta (unknown origin)-mediated AKT phosphorylation at Ser473 expressed in rat Rat1 cells by ELISA; assay type: cell-based
T2 sequence (O00329 whole entry): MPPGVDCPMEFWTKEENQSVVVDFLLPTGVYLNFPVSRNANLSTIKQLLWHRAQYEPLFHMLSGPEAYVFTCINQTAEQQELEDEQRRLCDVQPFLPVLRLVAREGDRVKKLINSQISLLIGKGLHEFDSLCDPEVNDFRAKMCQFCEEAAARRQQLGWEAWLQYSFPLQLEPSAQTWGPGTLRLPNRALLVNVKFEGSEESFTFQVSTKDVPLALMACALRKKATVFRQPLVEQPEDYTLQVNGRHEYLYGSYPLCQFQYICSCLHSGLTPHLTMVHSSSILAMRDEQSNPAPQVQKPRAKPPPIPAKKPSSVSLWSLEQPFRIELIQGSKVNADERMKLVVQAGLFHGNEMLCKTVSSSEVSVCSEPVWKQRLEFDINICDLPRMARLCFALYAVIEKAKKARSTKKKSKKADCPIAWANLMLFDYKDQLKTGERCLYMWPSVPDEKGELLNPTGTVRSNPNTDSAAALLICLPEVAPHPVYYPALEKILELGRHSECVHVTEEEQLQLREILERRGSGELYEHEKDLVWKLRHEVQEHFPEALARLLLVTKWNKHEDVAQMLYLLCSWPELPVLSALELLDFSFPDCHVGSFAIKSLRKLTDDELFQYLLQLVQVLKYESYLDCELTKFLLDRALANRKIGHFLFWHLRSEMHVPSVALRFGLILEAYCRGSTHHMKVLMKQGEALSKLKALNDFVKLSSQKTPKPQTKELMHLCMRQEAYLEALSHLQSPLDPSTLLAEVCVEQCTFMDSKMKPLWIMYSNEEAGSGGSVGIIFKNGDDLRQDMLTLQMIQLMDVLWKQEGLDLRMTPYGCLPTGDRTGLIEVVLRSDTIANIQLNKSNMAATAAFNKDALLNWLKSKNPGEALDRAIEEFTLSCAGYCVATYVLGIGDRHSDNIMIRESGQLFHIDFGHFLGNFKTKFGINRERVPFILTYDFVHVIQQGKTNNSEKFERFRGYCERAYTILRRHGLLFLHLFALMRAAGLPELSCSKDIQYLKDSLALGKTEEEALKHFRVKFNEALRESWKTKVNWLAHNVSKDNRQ

[7] = Clearance in Sprague-Dawley rat at 1 mg/kg, iv; assay type: ADME, organism-based; parameters: dose 1 mg/kg, route intravenous; details: in vivo
[8] = target: T2, Phosphatidylinositol 4,5-bisphosphate 3-kinase catalytic subunit delta isoform; test: Inhibition of P110delta (unknown origin) using PIP2:PS as substrate by TR-FRET assay
[9] = Plasma protein binding in Sprague-Dawley rat at 1 mg/kg, iv; assay type: ADME, organism-based; parameters: dose 1 mg/kg, route intravenous; details: read-out: PPB (converted)
[10] = Clearance in rat liver microsomes; assay type: ADME, Microsome; details: read-out: CLH
[11] = target: T1, Phosphatidylinositol 4,5-bisphosphate 3-kinase catalytic subunit beta isoform; test: Inhibition of P110beta (unknown origin) using L-a-phosphatidylinositol as substrate by luminescence assay
[12] = Cmax in mouse at 3 mg/kg, po; assay type: ADME, organism-based; parameters: dose 3 mg/kg, route oral; details: in vivo
[13] = target: Serine/threonine-protein kinase mTOR (Homo sapiens, UniProt P42345); test: Inhibition of mTOR (unknown origin)
[14] = Oral bioavailability in dog at 0.6 mg/kg; assay type: ADME, organism-based, Canis lupus familiaris; details: in vivo
[15] = Cmax in dog at 0.6 mg/kg, po; assay type: ADME, organism-based, Canis lupus familiaris; parameters: dose 0.6 mg/kg, route oral; details: in vivo
[16] = target: Phosphatidylinositol 3-kinase catalytic subunit type 3 (Homo sapiens, UniProt Q8NEB9); test: Inhibition of VPS34 (unknown origin)
Chain of Phosphatidylinositol 3-kinase catalytic subunit type 3 (Q8NEB9 whole entry): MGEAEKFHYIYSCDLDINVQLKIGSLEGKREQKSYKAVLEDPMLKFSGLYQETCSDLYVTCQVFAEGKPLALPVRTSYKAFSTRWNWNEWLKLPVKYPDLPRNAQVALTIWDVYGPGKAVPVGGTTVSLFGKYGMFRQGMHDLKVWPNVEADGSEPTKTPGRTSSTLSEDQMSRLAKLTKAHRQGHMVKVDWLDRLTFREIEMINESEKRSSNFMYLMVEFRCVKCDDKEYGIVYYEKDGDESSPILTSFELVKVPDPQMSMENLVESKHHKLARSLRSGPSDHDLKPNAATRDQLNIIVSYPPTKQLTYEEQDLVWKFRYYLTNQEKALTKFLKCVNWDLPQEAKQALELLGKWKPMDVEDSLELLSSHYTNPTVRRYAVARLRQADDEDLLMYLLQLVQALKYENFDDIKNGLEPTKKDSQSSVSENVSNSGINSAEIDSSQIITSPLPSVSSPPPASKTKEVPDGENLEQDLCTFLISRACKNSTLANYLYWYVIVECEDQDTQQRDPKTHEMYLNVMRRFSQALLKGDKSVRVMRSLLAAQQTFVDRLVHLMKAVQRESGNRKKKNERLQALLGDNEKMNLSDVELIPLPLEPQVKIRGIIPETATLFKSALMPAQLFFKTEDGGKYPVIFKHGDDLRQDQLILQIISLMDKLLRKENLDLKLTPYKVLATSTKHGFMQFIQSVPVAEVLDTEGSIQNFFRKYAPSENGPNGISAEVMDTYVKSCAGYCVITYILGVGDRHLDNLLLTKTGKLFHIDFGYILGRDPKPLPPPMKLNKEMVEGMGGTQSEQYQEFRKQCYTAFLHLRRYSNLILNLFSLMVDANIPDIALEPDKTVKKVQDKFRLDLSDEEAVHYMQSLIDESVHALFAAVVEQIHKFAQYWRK

[17] = Oral bioavailability in mouse at 3 mg/kg; assay type: ADME, organism-based; details: in vivo
[18] = Clearance in dog at 0.1 mg/kg, iv and 0.6 mg/kg, po; assay type: ADME, organism-based, Canis lupus familiaris; details: in vivo
[19] = target: DNA-dependent protein kinase catalytic subunit (Homo sapiens, UniProt P78527); test: Inhibition of DNA-PK (unknown origin)
[20] = target: Serine-protein kinase ATM (Homo sapiens, UniProt Q13315); test: Inhibition of ATM (unknown origin) phosphorylation at Ser1981 by cell-based assay
[21] = Cmax in rat at 15 mg/kg, po; assay type: ADME, organism-based; parameters: dose 15 mg/kg, route oral; details: in vivo
[22] = Clearance in mouse at 1 mg/kg, iv and 3 mg/kg, po; assay type: ADME, organism-based; details: in vivo
[23] = target: Serine/threonine-protein kinase ATR (Homo sapiens, UniProt Q13535); test: Inhibition of ATR (unknown origin)
[24] = Clearance in rat at 3.4 mg/kg, iv and 15 mg/kg, po; assay type: ADME, organism-based; details: in vivo
[25] = target: T3, Phosphatidylinositol 4,5-bisphosphate 3-kinase catalytic subunit alpha isoform (Homo sapiens, UniProt P42336); test: Inhibition of N-terminal myristoylated P110alpha (unknown origin)-mediated AKT phosphorylation at Ser473 expressed in rat Rat1 cells by ELISA; assay type: cell-based
T3 sequence (P42336 whole entry, canonical isoform): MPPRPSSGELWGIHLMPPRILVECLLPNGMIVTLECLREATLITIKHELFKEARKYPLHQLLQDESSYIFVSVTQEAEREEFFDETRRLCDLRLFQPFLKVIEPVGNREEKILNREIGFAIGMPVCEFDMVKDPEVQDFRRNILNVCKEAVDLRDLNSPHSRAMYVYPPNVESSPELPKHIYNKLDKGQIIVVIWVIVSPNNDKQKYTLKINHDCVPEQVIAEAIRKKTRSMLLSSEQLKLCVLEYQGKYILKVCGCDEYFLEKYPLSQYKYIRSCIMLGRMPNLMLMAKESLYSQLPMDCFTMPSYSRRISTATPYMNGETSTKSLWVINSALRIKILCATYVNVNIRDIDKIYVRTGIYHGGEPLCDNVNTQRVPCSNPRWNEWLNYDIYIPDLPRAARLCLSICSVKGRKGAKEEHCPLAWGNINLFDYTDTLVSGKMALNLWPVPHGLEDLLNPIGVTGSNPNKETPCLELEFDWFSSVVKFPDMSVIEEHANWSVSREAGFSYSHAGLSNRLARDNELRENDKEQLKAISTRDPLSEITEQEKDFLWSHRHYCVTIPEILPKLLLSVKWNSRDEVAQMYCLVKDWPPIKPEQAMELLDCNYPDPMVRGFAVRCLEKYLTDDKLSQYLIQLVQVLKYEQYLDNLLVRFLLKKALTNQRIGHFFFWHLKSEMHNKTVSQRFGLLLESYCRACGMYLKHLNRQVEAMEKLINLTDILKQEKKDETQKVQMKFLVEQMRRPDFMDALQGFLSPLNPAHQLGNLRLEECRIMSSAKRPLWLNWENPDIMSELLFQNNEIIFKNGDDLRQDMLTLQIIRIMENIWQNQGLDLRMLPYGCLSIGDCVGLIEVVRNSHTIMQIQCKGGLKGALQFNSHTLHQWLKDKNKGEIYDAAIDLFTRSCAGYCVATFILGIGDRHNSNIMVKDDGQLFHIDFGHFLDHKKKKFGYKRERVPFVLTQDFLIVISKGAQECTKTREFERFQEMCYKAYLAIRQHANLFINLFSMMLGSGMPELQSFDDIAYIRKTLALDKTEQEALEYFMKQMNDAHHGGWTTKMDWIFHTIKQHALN

[26] = target: T3, Phosphatidylinositol 4,5-bisphosphate 3-kinase catalytic subunit alpha isoform; test: Inhibition of P110alpha (unknown origin) using L-a-phosphatidylinositol as substrate by luminescence assay

Chain of Cytochrome P450 3A4 (P08684 whole entry): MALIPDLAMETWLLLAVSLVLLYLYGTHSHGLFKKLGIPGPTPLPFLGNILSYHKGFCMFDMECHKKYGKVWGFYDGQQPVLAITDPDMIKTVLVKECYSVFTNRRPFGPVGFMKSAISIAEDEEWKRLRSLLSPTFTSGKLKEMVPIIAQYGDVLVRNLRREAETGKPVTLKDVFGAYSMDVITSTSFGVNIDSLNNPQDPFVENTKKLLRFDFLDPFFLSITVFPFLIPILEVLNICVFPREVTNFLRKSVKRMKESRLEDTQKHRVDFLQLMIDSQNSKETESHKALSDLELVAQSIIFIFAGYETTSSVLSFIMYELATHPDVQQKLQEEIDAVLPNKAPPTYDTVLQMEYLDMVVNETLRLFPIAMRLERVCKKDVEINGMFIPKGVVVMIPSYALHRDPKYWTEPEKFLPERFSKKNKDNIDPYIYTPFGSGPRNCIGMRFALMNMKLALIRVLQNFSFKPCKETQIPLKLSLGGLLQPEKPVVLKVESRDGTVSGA

Row | Structure (SMILES) | IC50 (Cytochrome P450 3A4) | microsomal CLint [2] | IC50 [3] | IC50 [4] | IC50 [6] | IC50 [8] | microsomal CLint [10] | IC50 [11] | IC50 [25] | IC50 [26] | further results
1 | Cc1nc(NC(=O)N2CCC[C@H]2C(N)=O)sc1-c1ccnc(C(C)(C)C)c1 | > 10000 nM | 77 µL/min/mg | 8000 nM | 430 nM | 720 nM | 330 nM |  |  |  |  | half-life [1]: 3.4 h; Vd [5]: 1.4 L/kg; clearance [7]: 39 mL/min/kg
2 | Cc1nc(NC(=O)N2CCC[C@H]2C(N)=O)sc1-c1ccnc(C2(C)CC2)n1 | > 10000 nM |  | 9600 nM | 690 nM | 3000 nM | 810 nM | 47 µL/min/mg | 3100 nM |  |  | fraction unbound [9]: 0.029; half-life [1]: 1.7 h; Vd [5]: 0.9 L/kg; clearance [7]: 8 mL/min/kg
3 | Cc1nc(NC(=O)N2CCC[C@H]2C(N)=O)sc1-c1ccnc(C(C)(C)C(F)(F)F)c1 [ALPELISIB] |  |  |  |  |  |  |  |  |  |  | Cmax [12]: 520 nM; fraction unbound [9]: 0.057; IC50 [13]: > 9100 nM; bioavailability [14]: 140%; Cmax [15]: 1070 nM; IC50 [16]: > 9100 nM; bioavailability [17]: 106%; half-life [1]: 2.9 h; clearance [18]: 8 mL/min/kg; IC50 [19]: > 9100 nM; IC50 [20]: > 10000 nM; Cmax [21]: 190 nM; clearance [22]: 8 mL/min/kg; Vd [5]: 1.9 L/kg; IC50 [23]: > 9100 nM; clearance [24]: 10 mL/min/kg; clearance [7]: 10 mL/min/kg
4 | Cc1nc(NC(=O)N2CCC[C@H]2C(N)=O)sc1-c1ccc(-n2cccn2)cc1 |  |  | 2100 nM |  | 620 nM |  |  |  | 130 nM |  | 
5 | Cc1nc(NC(=O)N2CC[C@H]2C(N)=O)sc1-c1ccnc(C(C)(C)C)n1 |  |  | 6400 nM | 320 nM | 1600 nM | 290 nM | 44 µL/min/mg | 1200 nM | 230 nM | 19 nM | 
6 | CC(C)(c1cc(-c2sc(NC(=O)N3CCC[C@H]3C(N)=O)nc2Cl)ccn1)C(F)(F)F |  |  | > 10000 nM | 1400 nM | 4900 nM | 430 nM | 17 µL/min/mg |  | 340 nM |  | 
7 | Cc1nc(NC(=O)N2CCC[C@H]2C(N)=O)sc1-c1ccnc(C(C)C)n1 | > 10000 nM |  | 5900 nM | 1400 nM | 1300 nM | 960 nM | 36 µL/min/mg | 4000 nM | 100 nM | 16 nM | 
8 | Cc1nc(NC(=O)N2CCC[C@@H]2C(N)=O)sc1-c1ccnc(C(C)(C)C)c1 |  | 36 µL/min/mg |  | > 10000 nM |  | 3300 nM |  | 8200 nM |  |  | 
9 | CC(C)(c1cc(-c2cnc(NC(=O)N3CCC[C@H]3C(N)=O)s2)ccn1)C(F)(F)F | > 10000 nM |  | 2400 nM | 830 nM | 2900 nM | 1100 nM | 27 µL/min/mg |  | 140 nM | 9.5 nM | 
10 | Cc1nc(NC(=O)N2CCCC2)sc1-c1ccnc(C(C)(C)C)c1 |  | 186 µL/min/mg | > 10000 nM | 930 nM | 770 nM | 590 nM |  | 4900 nM | 2500 nM | 620 nM | 
11 | Cc1nc(NC(=O)N2CCC[C@H]2C(N)=O)sc1-c1cc(C(C)C)ncn1 |  |  | > 10000 nM |  | > 10000 nM |  |  | > 9100 nM | 4600 nM | 320 nM | 
12 | Cc1nc(NC(=O)N2CCC[C@H]2C(N)=O)sc1-c1ccnc(C2(C#N)CC2)c1 | > 10000 nM |  | > 10000 nM | 1100 nM | > 10000 nM | 2000 nM | 41 µL/min/mg |  | 640 nM |  | 
13 | Cc1nc(NC(=O)N2CCC[C@H]2C(N)=O)sc1-c1ccnc(C2CCC2)n1 | > 10000 nM |  | 7300 nM | 610 nM | > 10000 nM | 690 nM | 53 µL/min/mg | 1800 nM | 440 nM | 20 nM | 
14 | Cc1nc(NC(=O)N2CCC[C@H]2C(N)=O)sc1-c1ccnc(C(C)(C)C)n1 | > 10000 nM | 62 µL/min/mg |  |  |  |  |  |  |  |  | fraction unbound [9]: 0.06; half-life [1]: 1.2 h; Vd [5]: 1.2 L/kg; clearance [7]: 21 mL/min/kg
15 | CCN(CC)c1nccc(-c2sc(NC(=O)N3CCC[C@H]3C(N)=O)nc2C)n1 |  |  | 4400 nM | 410 nM | 2500 nM | 340 nM | 96 µL/min/mg |  | 170 nM |  | 
16 | CNC(=O)[C@@H]1CCCN1C(=O)Nc1nc(C)c(-c2ccnc(C(C)(C)C)c2)s1 |  | 104 µL/min/mg | > 10000 nM | 4600 nM | 5800 nM | 4200 nM |  | > 9100 nM | > 10000 nM | 2700 nM | 
